In brackets after ≈: the same amount, converted by molar mass. Positions of bridges follow the written chain, without caps; N, C: chain ends. Non-standard residues stand in square brackets, D forms with d. Residues, ends and D or L forms follow the SMILES beside them. *: point of attachment. Decanoyl(3R-OH) = CCCCCCC[C@@H](O)CC(=O)*; dBip = N[C@H](Cc1ccc(-c2ccccc2)cc1)C(=O)O; dPhe(4-NH2) = Nc1ccc(C[C@@H](N)C(=O)O)cc1; d3Pal = N[C@H](Cc1cccnc1)C(=O)O; X11 = CCCCCCCNc1ccc(C(=O)*)cc1; dOrn = NCCC[C@@H](N)C(=O)O; dDab = NCC[C@@H](N)C(=O)O; Octanoyl = CCCCCCCC(=O)*; dDap = NC[C@@H](N)C(=O)O; Dab = NCC[C@H](N)C(=O)O
Experiments:
[1] = system: P. aeruginosa ATCC 27853; conditions: ATCC 27853
Method in brief: (§1)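 Mid-log cultures grown in Mueller Hinton broth at 37° C were tested by 2-fold broth microdilution at 5×10^5 CFU/mL final. Compounds were dissolved in water and tested over a final range of 32 to 0.015 μg/mL.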

[2] = system: S. aureus ATCC 25923, MSSA; conditions: ATCC 25923
Method in brief: as §1

[3] = system: P. aeruginosa GN_043, PmxR; conditions: P. aeruginosa GN_043, PmxR
Method in brief: as §1

[4] = system: A. baumannii GN_093 PmxR; conditions: GN 093 PmxR
Method in brief: as §1

[5] = system: A. baumannii ATCC 19606; conditions: ATCC 19606
Method in brief: as §1

[6] = system: K. pneumoniae GN_106, PmxR; conditions: GN 106, PmxR
Method in brief: as §1

[7] = system: P. aeruginosa GN_105, PmxR; conditions: GN 105, PmxR
Method in brief: as §1

[8] = system: K. pneumoniae ATCC 13883; conditions: ATCC 13883
Method in brief: as §1

[9] = system: E. coli ATCC 25922; conditions: ATCC 25922
Method in brief: as §1

[10] = system: K. pneumoniae ATCC 700603, MDR; conditions: ATCC 700603
Method in brief: as §1

[11] = system: K. pneumoniae GN_102 PmxR; conditions: GN 102 PmxR
Method in brief: as §1

[12] = system: K. pneumoniae ATCC BAA-2146, NDM-1 pos; conditions: ATCC BAA-2146
Method in brief: as §1

[13] = in vitro; conditions: human
Method in brief: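 HK2 cells were seeded at 2000 per well in DMEM/F12 with 10% FBS and left to attach for 24 h at 37 °C, 5% CO2. They were then exposed for 24 h to 3-fold peptide dilutions starting from 600 μM solutions in quadruplicate. LDH release was read at 450 nm, and CC50 was fitted from dose-response curves.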

Row | Compound | MIC P. aeruginosa ATCC 27853 [1] | MIC S. aureus ATCC 25923, MSSA [2] | MIC P. aeruginosa GN_043, PmxR [3] | MIC A. baumannii GN_093 PmxR [4] | MIC A. baumannii ATCC 19606 [5] | MIC K. pneumoniae GN_106, PmxR [6] | MIC P. aeruginosa GN_105, PmxR [7] | MIC K. pneumoniae ATCC 13883 [8] | MIC E. coli ATCC 25922 [9] | MIC K. pneumoniae ATCC 700603, MDR [10] | MIC K. pneumoniae GN_102 PmxR [11] | MIC K. pneumoniae ATCC BAA-2146, NDM-1 pos [12] | CC50 at 24 h [13]
1 | CCCCCCC[C@@H](O)CC(=O)N[C@H](CCN)C(=O)N[C@H]1CCNC(=O)[C@H]([C@@H](C)O)NC(=O)[C@H](CCN)NC(=O)[C@H](CCN)NC(=O)[C@H](CC(C)C)NC(=O)[C@@H](Cc2ccc(-c3ccccc3)cc2)NC(=O)[C@H](CCN)NC1=O [compound 5608, 3(R)OH-nC9CO-D-Dab-cyc[L-Dab-L-Dab-D-Bip-L-Leu-L-Dab-L-Dab-L-Thr]] ({Decanoyl(3R-OH)}-[dDab][Dab][Dab][dBip]L[Dab][Dab]T; lactam 2-C) | 2 µg/mL (≈ 1.8 µM) | 4 µg/mL (≈ 3.61 µM) | 1 µg/mL (≈ 0.902 µM) | 16 µg/mL (≈ 14.4 µM) | 4 µg/mL (≈ 3.61 µM) | 8 µg/mL (≈ 7.22 µM) | 2 µg/mL (≈ 1.8 µM) | 2 µg/mL (≈ 1.8 µM) | 2 µg/mL (≈ 1.8 µM) | 2 µg/mL (≈ 1.8 µM) | 4 µg/mL (≈ 3.61 µM) | 2 µg/mL (≈ 1.8 µM) | 37 µM
2 | CCCCCCC[C@@H](O)CC(=O)N[C@H](Cc1c[nH]c2ccccc12)C(=O)N[C@H]1CCNC(=O)[C@H]([C@@H](C)O)NC(=O)[C@H](CCN)NC(=O)[C@H](CCN)NC(=O)[C@H](CC(C)C)NC(=O)[C@@H](Cc2ccccc2)NC(=O)[C@H](CCN)NC1=O [compound 6394, 3(R)OH-nC9CO-D-Trp-cyc[L-Dab-L-Dab-D-Phe-L-Leu-L-Dab-L-Dab-L-Thr]] ({Decanoyl(3R-OH)}-[dW][Dab][Dab][dF]L[Dab][Dab]T; lactam 2-C) | 64 µg/mL (≈ 57.2 µM) | >32 µg/mL | >32 µg/mL | >32 µg/mL | >64 µg/mL | >32 µg/mL | >32 µg/mL | >64 µg/mL | >64 µg/mL | >64 µg/mL | >32 µg/mL | >64 µg/mL | > 300 µM
3 | CCCCCCC[C@@H](O)CC(=O)N[C@H](CN)C(=O)N[C@H]1CCNC(=O)[C@H]([C@@H](C)O)NC(=O)[C@H](CCN)NC(=O)[C@H](CCN)NC(=O)[C@H](CC(C)C)NC(=O)[C@@H](Cc2ccccc2)NC(=O)[C@H](CCN)NC1=O [compound 6395, 3(R)OH-nC9CO-D-Dap-cyc[L-Dab-L-Dab-D-Phe-L-Leu-L-Dab-L-Dab-L-Thr]] ({Decanoyl(3R-OH)}-[dDap][Dab][Dab][dF]L[Dab][Dab]T; lactam 2-C) | 2 µg/mL (≈ 1.96 µM) | >32 µg/mL | 2 µg/mL (≈ 1.96 µM) | >32 µg/mL | 16 µg/mL (≈ 15.7 µM) | 32 µg/mL (≈ 31.4 µM) | 2 µg/mL (≈ 1.96 µM) | 8 µg/mL (≈ 7.86 µM) | 2 µg/mL (≈ 1.96 µM) | 1 µg/mL (≈ 0.982 µM) | 16 µg/mL (≈ 15.7 µM) | 2 µg/mL (≈ 1.96 µM) | > 300 µM
4 | CCCCCCC[C@@H](O)CC(=O)N[C@H](CCCN)C(=O)N[C@H]1CCNC(=O)[C@H]([C@@H](C)O)NC(=O)[C@H](CCN)NC(=O)[C@H](CCN)NC(=O)[C@H](CC(C)C)NC(=O)[C@@H](Cc2ccccc2)NC(=O)[C@H](CCN)NC1=O [compound 6396, 3(R)OH-nC9CO-D-Orn-cyc[L-Dab-L-Dab-D-Phe-L-Leu-L-Dab-L-Dab-L-Thr]] ({Decanoyl(3R-OH)}-[dOrn][Dab][Dab][dF]L[Dab][Dab]T; lactam 2-C) | 16 µg/mL (≈ 15.3 µM) | >32 µg/mL | 16 µg/mL (≈ 15.3 µM) | >32 µg/mL | >64 µg/mL | >32 µg/mL | 16 µg/mL (≈ 15.3 µM) | >64 µg/mL | 16 µg/mL (≈ 15.3 µM) | 16 µg/mL (≈ 15.3 µM) | >32 µg/mL | 32 µg/mL (≈ 30.6 µM) | > 300 µM
5 | CCCCCCC[C@@H](O)CC(=O)N[C@H](Cc1ccc(N)cc1)C(=O)N[C@H]1CCNC(=O)[C@H]([C@@H](C)O)NC(=O)[C@H](CCN)NC(=O)[C@H](CCN)NC(=O)[C@H](CC(C)C)NC(=O)[C@@H](Cc2ccccc2)NC(=O)[C@H](CCN)NC1=O [compound 6397, 3(R)OH-nC9CO-D-4NH2Phe-cyc[L-Dab-L-Dab-D-Phe-L-Leu-L-Dab-L-Dab-L-Thr]] ({Decanoyl(3R-OH)}-[dPhe(4-NH2)][Dab][Dab][dF]L[Dab][Dab]T; lactam 2-C) | >64 µg/mL | >32 µg/mL | >32 µg/mL | >32 µg/mL | >64 µg/mL | >32 µg/mL | >32 µg/mL | >64 µg/mL | >64 µg/mL | >64 µg/mL | >32 µg/mL | >64 µg/mL | > 300 µM
6 | CCCCCCC[C@@H](O)CC(=O)N[C@H](Cc1cccnc1)C(=O)N[C@H]1CCNC(=O)[C@H]([C@@H](C)O)NC(=O)[C@H](CCN)NC(=O)[C@H](CCN)NC(=O)[C@H](CC(C)C)NC(=O)[C@@H](Cc2ccccc2)NC(=O)[C@H](CCN)NC1=O [compound 6398, 3(R)OH-nC9CO-D-3PyPhe-cyc[L-Dab-L-Dab-D-Phe-L-Leu-L-Dab-L-Dab-L-Thr]] ({Decanoyl(3R-OH)}-[d3Pal][Dab][Dab][dF]L[Dab][Dab]T; lactam 2-C) | 32 µg/mL (≈ 29.6 µM) | >32 µg/mL | >32 µg/mL | >32 µg/mL | >64 µg/mL | >32 µg/mL | >32 µg/mL | >64 µg/mL | >64 µg/mL | >64 µg/mL | 32 µg/mL (≈ 29.6 µM) | >64 µg/mL | > 300 µM
7 | CCCCCCCC(=O)N[C@H](CCN)C(=O)N[C@H]1CCNC(=O)[C@H]([C@@H](C)O)NC(=O)[C@H](CCN)NC(=O)[C@H](CCN)NC(=O)[C@H](CC(C)C)NC(=O)[C@@H](Cc2ccccc2)NC(=O)[C@H](CCN)NC1=O [compound 6399, nC7CO-D-Dab-cyc[L-Dab-L-Dab-D-Phe-L-Leu-L-Dab-L-Dab-L-Thr]] (Octanoyl-[dDab][Dab][Dab][dF]L[Dab][Dab]T; lactam 2-C) | 1 µg/mL (≈ 1.01 µM) | >32 µg/mL | 8 µg/mL (≈ 8.1 µM) | >32 µg/mL | >32 µg/mL | >32 µg/mL | >32 µg/mL | >32 µg/mL | 8 µg/mL (≈ 8.1 µM) | 16 µg/mL (≈ 16.2 µM) | >32 µg/mL | >32 µg/mL | > 300 µM
8 | CCCCCCCNc1ccc(C(=O)N[C@H](CCN)C(=O)N[C@H]2CCNC(=O)[C@H]([C@@H](C)O)NC(=O)[C@H](CCN)NC(=O)[C@H](CCN)NC(=O)[C@H](CC(C)C)NC(=O)[C@@H](Cc3ccccc3)NC(=O)[C@H](CCN)NC2=O)cc1 [compound 6403, 4(C7H15NH)PheCO-D-Dab-cyc[L-Dab-L-Dab-D-Phe-L-Leu-L-Dab-L-Dab-L-Thr]] (X11-[dDab][Dab][Dab][dF]L[Dab][Dab]T; lactam 2-C) | 16 µg/mL (≈ 14.8 µM) | >32 µg/mL | 32 µg/mL (≈ 29.6 µM) | >32 µg/mL | >64 µg/mL | >32 µg/mL | >32 µg/mL | >64 µg/mL | >64 µg/mL | >64 µg/mL | >32 µg/mL | >64 µg/mL | > 300 µM
